The subject of this experiment is TNF-α. Briefly: Production of TNF-α by human monocytic cell line THP-1. Format: cell-based. On the procedure: THP-1 cells are commercially available. Cultured cells can be placed in RPMI complete medium in microtitre plates (e.g. […] in 96 well plates) and after 24 hrs incubation, PMA (10 ng/mi) added to 96 well plate to differentiate THP-1 cells and to determine the effects on TNF-α and IL-10 production. The cells should be pre-treated with cucumber extract at, for example, 200 μg/ml to 25 μg/ml followed by 2 hr LPS (100 ng/ml) stimulation. Post incubation, the cell supernatant is aspirated from each of the wells into sterile micro centrifuge tubes and centrifuged at 1000 rpm for 2-3 mins to settle any cells if present. The cell supernatant is then used for evaluation of presence of TNF-α or IL-10 using ELISA. Sandwich ELISA plates coated with suitable antibody are widely available (e.g. R&D Systems, USA).
A second study indicated even greater activity for idoBR1 in human blood (significant at 0.01 μM) with pre-incubation. […] The data clearly indicate that idoBR1 can inhibit the production of TNF-α in human blood. Thus, it appears that it may be a potent anti-inflammatory agent. It also appears that it may be acting via a novel mechanism distinct from the steroid receptor pathways.

The values below come from patent US12558348B2, “Bioactive phytochemicals” (Phytoquest Limited, priority 2019, dated 2026).

Usually inhibition stands for the relative decrease from the control value, in per cent.

Structures are written as SMILES.

For `CC#C[C@]1(O)CC[C@H]2[C@@H]3CCC4=CC(=O)CCC4=C3[C@@H](c3ccc(N(C)C)cc3)C[C@@]21C` [Mifepristone, reference compound], the “effect on TNF-α production from THP-1 cells” value (alone with LPS) is listed as “greatly amplified”.

Regarding `C[C@@H]1C[C@H]2[C@@H]3CCC4=CC(=O)C=C[C@]4(C)[C@@]3(F)[C@@H](O)C[C@]2(C)[C@@]1(O)C(=O)CO` [dexamethasone, reference compound], the inhibition at 50 µM (Homo sapiens, THP-1, 50 μM, identical pretreatment) is above 65%.
